For series [1], the system named is pancreatic cancer cell line AsPc-1. Briefly: Trans-well cancer cell migration inhibition, AsPc-1. It counts as cell-based. To be noted: Homo sapiens, ASPC1; Pancreatic cancer cell line AsPc-1; read-out: Concentration inhibiting migration of cancer cells by 50% (IC50 value). Here is the method: (§1) In order to analyze cancer cell migration inhibitory activity of CG-608, CG-609 or CG-618 prepared in Examples 1, 2, or 9, cell migration inhibitory activity was measured using a trans-well by targeting a colon cancer cell line DLD-1 (ATCC-CCL-221), pancreatic cancer cell lines AsPc-1 (ATCC-CCL-1682). CFPAC-1 (ATCC-CCL-1918). Panc-1 (ATCC-CCL-1469), and Miapaca-2 (ATCC-CCL-1420), a skin cancer cell line A375-P (ATCC-CCL-3224), lung cancer cell lines HCC-827 (ATCC-CCL-2868), A549 (ATCC-CCL-185), and NCI-H460 (ATCC-CCL-177), a prostate cancer cell line DU145 (ATCC-HTB-81), a stomach cancer cell line NuGC-3 (JCRB0822), and an ovarian cancer cell line SKOV-3 (ATCC-HTB-77).
(§2) First, the number of DLD-1 cells was measured using a hemocytometer in an RPMI medium without FBS. Thereafter, the trans-well was placed on a 24-well plate and 8×10^4 […] of cells were added. In an empty space with the trans-well on the well plate, […] of an RPM medium having 10% FBS containing CG-608, CG-609, or CG-618 was added and cultured in a CO2 incubator at 37° C. for 16 hours. After culture, […] of crystal violet (5 mg/mL of 20% […] was added to each well of the 24-well plate and the trans-well was dyed at room temperature for 30 minutes. The dyed trans-well was washed with PBS and non-migrated cells were wiped off with cotton swabs. The prepared sample was photographed with an inverted microscope mounted with a digital camera (TE 300, Nikon. Japan) and then the number of migrated cells was counted. The degree of inhibiting cell migration was calculated by Equation 1 for a group treated with the sample compared to a control group (DMSO).
(§3) In Equation 1, ‘the number of migrated cells treated with sample’ refers to the number of migrated cells measured by treating CG-608 or CG-618 of Example 1, and ‘the number of migrated cells of a control sample’ refers to the number of migrated cells measured by treating only 1% dimethyl sulfoxide (DMSO) instead of the compound.

The test system of series [2] is prostate cancer cell line DU145. The series can be described thus: Trans-well cancer cell migration inhibition, DU145. The format is cell-based. To be noted: Homo sapiens, DU-145; Prostate cancer cell DU145; read-out: Concentration inhibiting migration of cancer cells by 50% (IC50 value). Here is the method: as §1, §2, §3
Series [3] concerns lung cancer cell line HCC-827. The series can be described thus: Trans-well cancer cell migration inhibition, HCC-827. The format is cell-based. To be noted: Homo sapiens, HCC827; Lung cancer cell HCC-827; read-out: Concentration inhibiting migration of cancer cells by 50% (IC50 value). The protocol: as §1, §2, §3
Series [4] can be described thus: Acute toxicity test for oral administration to rats. To be noted: rat, in vivo, 1000 mg/kg; SD rats, single oral dose; read-out: Minimum dose (LD50) of oral administration. The protocol: Six-week-old specific pathogen free (SPF) SD-based rats were divided by two per group and then CG-608, CG-609, or CG-618 prepared in Example 1, 2, or 9 was dissolved in distilled water for injection and orally administered to rats once in a dose of 1000 mg/kg.

The subject of series [5] is stomach cancer cell line NuGC-3. The series can be described thus: Trans-well cancer cell migration inhibition, NuGC-3. The format is cell-based. To be noted: Homo sapiens; Gastric cancer cell NuGC-3; read-out: Concentration inhibiting migration of cancer cells by 50% (IC50 value). Here is the method: as §1, §2, §3
The test system of series [6] is colon cancer cell line DLD-1. The series can be described thus: Trans-well cancer cell migration inhibition, DLD-1. The format is cell-based, human. To be noted: Homo sapiens; Colon cancer cell DLD-1, trans-well, 16 hours; read-out: Concentration inhibiting migration of cancer cells by 50% (IC50 value). Here is the method:
as §1, §2, §3

Series [7] concerns skin cancer cell line A375-P. Briefly: Trans-well cancer cell migration inhibition, A375-P. It counts as cell-based. To be noted: Homo sapiens, A375P; Skin cancer cell A375-P; read-out: Concentration inhibiting migration of cancer cells by 50% (IC50 value). Here is the method:
as §1, §2, §3

Series [8] deals with colon cancer cells DLD-1. Briefly: Cancer cell invasion inhibition (Matrigel trans-well), DLD-1. It counts as cell-based. To be noted: Homo sapiens, DLD-1; 5 μM. Here is the method: In order to analyze cancer cell invasion inhibitory activity of CG-609 or CG-618 prepared in Example 1 or 9, cell invasion inhibitory activity using a trans-well was measured by targeting colon cancer cell line DLD-1 cells or pancreatic cancer cell line AsPc-1 cells.
Matrigel was diluted by 1/5 using an RPMI medium without FBS and then […] was put into each trans-well. The cells were coated in a […] for 2 hours. The number of DLD-1 cells was measured using a hemocytometer in an RPMI medium without FBS. Thereafter, the coated trans-well was placed on a 24-well plate and 8×10^4 […] of cells were added. In an empty space of the trans-well on the well plate, […] of an RPMI medium having 10% FBS containing (S)-(−)-benproperine was added and cultured in a CO2 incubator at 37° C. for 16 hours. After culture, […] of crystal violet (5 mg/mL of 20% MeOH) was added to each well of the 24-well plate and the trans-well was dyed at room temperature for 30 minutes. The dyed trans-well was washed with PBS and non-migrated cells were wiped off with cotton swabs. The prepared sample was photographed with an inverted microscope mounted with a digital camera (TE 300, Nikon, Japan), and then the number of migrated cells was counted. The degree of inhibiting cell migration was calculated for a group treated with the sample compared to a control group (DMSO).

For `CC1CCCCN1[C@@H](C)COc1ccccc1Cc1ccccc1` (stereo partly drawn) [CG-608, 1-((S)-1-(2-benzylphenoxy)propan-2-yl)-2-methylpiperidine], the IC50 in series [1] is 250 nM; in series [2] it was 5000 nM; in series [3], 1500 nM; in series [5], 2000 nM; in series [6], 200 nM; in series [7], 1500 nM. The LD50 in series [4] is no less than 1000 mg/kg.
For the compound `CC(COc1ccccc1Cc1ccccc1)N1CCCCC1` (centres unmarked) [benproperine, reference compound], the IC50 was 3000 nM in series [1]; 20000 nM in series [2]; 20000 nM in series [3]; less than 20000 nM in series [5]; 2000 nM in series [6]; 7000 nM in series [7]. In series [8], the inhibition at 5 µM came out at 50%.

As usually defined, the inhibition is how much of the control response was suppressed. Read a high inhibition as a response far below the control.

Source of the values: US11945779B2, “Inhibitors of cancer metastasis through inhibiting migration and invasion of cancer cells” (VSpharmtech, priority 2018, dated 2024).
